Laboratory results taken from US12636274B2, “Pharmaceutical compositions and methods for systemic treatment of solid tumors” (7 HILLS INTERESTS LLC, priority 2014, dated 2026).

Experiments:
[1] = Clinical symptoms in monkeys; format: in vivo
α1b1/Collagen IV = α1b1/Collagen IV (Homo sapiens, UniProt P05556+P56199); assay: Integrin activation, adhesion α1b1/Collagen IV; format: cell-based; set-up: key: Not Active: Not active: ≤2 fold increase in adhesion; conditions: 50% serum; n = 3
Excerpt: (§1) Activating all integrins is necessary for firm endothelial cell adhesion for extravasation.

α4β7/MAcDAM-1 = molecular target: T1, α4β7/MAcDAM-1 (Homo sapiens, UniProt P13612+P26010); assay: Integrin activation, adhesion α4β7/MAcDAM-1; format: cell-based; conditions: 50% serum; n = 3; read-out: Integrin Selectivity EC50 α4β7/MAcDAM-1
T1 sequence (P13612 34-1032): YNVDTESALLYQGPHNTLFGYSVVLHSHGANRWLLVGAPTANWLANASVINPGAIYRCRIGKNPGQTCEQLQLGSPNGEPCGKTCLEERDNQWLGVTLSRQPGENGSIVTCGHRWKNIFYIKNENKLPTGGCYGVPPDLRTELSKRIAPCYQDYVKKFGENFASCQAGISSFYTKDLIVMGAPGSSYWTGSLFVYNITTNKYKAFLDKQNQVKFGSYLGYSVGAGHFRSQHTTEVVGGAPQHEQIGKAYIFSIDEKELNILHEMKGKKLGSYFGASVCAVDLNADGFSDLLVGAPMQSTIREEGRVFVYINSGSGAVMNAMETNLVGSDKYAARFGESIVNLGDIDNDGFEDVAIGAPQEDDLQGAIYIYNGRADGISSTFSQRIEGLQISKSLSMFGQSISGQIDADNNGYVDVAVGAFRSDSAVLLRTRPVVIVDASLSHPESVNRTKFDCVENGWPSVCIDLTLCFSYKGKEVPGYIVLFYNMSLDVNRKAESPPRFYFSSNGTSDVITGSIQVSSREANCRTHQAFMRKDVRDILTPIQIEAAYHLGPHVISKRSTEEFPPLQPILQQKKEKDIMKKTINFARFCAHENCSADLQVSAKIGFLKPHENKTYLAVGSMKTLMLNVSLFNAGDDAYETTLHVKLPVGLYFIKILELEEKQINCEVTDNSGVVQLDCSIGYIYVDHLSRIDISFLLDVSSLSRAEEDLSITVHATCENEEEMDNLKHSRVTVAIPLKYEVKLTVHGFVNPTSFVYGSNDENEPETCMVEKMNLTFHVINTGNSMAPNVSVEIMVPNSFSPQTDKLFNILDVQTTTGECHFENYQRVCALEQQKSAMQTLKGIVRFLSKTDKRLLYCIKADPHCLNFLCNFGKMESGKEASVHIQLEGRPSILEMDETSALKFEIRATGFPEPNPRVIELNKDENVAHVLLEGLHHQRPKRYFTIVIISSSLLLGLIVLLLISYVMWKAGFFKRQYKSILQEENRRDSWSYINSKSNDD
T1 sequence (P26010 20-798): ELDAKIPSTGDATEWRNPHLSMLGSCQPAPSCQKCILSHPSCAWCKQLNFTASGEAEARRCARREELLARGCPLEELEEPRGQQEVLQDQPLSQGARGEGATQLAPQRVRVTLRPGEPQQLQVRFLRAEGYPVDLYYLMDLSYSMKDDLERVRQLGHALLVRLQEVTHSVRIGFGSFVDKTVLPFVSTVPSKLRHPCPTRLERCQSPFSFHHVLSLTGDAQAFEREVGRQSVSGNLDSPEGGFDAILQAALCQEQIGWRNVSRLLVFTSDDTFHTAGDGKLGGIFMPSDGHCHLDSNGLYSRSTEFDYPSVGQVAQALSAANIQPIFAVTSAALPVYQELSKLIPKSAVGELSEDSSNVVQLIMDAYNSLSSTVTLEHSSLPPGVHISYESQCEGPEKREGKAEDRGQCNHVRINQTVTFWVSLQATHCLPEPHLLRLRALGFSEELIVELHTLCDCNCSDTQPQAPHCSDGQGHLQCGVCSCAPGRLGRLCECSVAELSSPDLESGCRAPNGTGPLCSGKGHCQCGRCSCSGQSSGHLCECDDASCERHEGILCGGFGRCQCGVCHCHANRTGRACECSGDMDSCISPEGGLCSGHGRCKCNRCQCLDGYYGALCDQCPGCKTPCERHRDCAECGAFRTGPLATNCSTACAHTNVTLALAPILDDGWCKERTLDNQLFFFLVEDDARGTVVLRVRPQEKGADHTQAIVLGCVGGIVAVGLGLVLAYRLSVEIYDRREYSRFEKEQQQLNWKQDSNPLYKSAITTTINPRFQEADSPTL
Excerpt: as §1

α1b1/Collagen IV, sequence (P56199 29-1179): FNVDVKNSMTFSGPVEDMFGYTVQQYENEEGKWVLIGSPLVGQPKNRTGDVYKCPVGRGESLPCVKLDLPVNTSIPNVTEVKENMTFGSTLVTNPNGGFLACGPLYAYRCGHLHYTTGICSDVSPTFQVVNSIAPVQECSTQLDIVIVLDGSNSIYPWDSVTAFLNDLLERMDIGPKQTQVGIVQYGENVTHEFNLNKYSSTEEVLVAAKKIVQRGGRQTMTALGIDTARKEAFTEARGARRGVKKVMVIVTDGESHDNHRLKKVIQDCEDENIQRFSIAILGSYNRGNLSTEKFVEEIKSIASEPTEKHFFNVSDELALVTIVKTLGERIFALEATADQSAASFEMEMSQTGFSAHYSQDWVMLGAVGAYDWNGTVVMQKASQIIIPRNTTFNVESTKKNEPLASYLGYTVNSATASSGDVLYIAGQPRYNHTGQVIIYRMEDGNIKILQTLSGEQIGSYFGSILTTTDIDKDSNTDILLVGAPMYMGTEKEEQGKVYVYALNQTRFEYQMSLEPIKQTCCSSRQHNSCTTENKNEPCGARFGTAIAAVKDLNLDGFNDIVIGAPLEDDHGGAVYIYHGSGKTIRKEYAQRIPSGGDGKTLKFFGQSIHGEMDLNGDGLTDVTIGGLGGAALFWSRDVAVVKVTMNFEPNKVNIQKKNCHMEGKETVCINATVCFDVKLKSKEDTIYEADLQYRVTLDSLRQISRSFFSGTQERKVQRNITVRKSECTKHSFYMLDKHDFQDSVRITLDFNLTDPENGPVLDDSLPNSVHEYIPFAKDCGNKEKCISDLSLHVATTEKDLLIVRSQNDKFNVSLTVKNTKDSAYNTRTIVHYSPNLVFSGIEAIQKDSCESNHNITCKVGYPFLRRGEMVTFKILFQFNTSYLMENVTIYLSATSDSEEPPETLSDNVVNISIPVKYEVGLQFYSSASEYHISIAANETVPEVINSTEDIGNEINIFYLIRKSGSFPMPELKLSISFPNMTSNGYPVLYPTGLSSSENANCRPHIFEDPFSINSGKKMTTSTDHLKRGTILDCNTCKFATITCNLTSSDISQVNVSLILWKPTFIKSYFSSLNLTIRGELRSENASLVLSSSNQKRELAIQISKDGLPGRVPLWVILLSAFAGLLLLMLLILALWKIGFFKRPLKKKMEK
α1b1/Collagen IV, sequence (P05556 21-798): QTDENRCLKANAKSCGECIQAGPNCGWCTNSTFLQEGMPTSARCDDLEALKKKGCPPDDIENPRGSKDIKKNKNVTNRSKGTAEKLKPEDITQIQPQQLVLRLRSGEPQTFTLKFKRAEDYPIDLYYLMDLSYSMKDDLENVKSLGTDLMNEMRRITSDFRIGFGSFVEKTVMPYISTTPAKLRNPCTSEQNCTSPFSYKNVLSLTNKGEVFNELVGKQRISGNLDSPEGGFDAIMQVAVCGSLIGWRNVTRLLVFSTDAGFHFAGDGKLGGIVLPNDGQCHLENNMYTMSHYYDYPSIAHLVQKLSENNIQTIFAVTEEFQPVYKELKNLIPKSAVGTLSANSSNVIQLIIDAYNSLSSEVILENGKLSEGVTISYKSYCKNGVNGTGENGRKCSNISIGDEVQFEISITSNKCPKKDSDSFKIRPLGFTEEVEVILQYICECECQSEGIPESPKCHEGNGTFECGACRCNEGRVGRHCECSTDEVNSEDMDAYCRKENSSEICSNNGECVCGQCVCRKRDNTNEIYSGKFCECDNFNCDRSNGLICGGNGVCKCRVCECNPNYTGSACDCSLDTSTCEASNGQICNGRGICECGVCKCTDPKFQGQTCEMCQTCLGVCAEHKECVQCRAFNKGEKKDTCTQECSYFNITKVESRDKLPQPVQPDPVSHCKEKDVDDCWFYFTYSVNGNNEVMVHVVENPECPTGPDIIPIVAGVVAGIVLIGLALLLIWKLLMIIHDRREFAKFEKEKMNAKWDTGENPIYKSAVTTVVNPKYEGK

O=C(OCCOCCOCCOC(=O)N(Cc1cccs1)Cc1cccs1)N(Cc1cccs1)Cc1cccs1 [Compound 1, 3-oxo-1-(2-thienyl)-2-(2-thienylmethyl)-4,7,10-trioxa-2-azadodecan-12-yl bis(2-thienylmethyl)carbamate]
exposure up to which no clinical symptoms [1]: ~50 times therapeutic exposure | exposure with no adverse clinical symptoms [1]: > 50 times therapeutic exposure | Integrin Selectivity EC50 α1b1/Collagen IV (α1b1/Collagen IV): Not Active | EC50 (α4β7/MAcDAM-1): 10 ± 2.1 µM
